Read-outs that look alike come from different tables or passages of the source.
Key:
Type in all cases: cell-based
Mycobacterium marinum [1] = assay: Infection assay: intracellular M. marinum growth (luminescence) in D. discoideum; details: for activity at 0.411523 µM / activity at 1.23457 µM / activity at 3.7037 µM / activity at 11.1111 µM / activity at 33.3333 µM / activity at 100 µM: 72 h; for activity at 0.411523 µM: conc 0.411522634 uM; for activity at 1.23457 µM: conc 1.234567901 uM; for activity at 3.7037 µM: conc 3.703703704 uM; for activity at 11.1111 µM: conc 11.11111111 uM; for activity at 33.3333 µM: conc 33.33333333 uM; for activity at 100 µM: conc 100 uM; for IC50: interpolated between the two concentrations closest to residual growth 0.5, top concentration 100 μM
From the text: (§1) Since fractions were not weighed individually, the injection mass was used to calculate an average mass per fraction and thus a nominal mass concentration.

Dictyostelium discoideum = assay: Infection assay: growth of the host amoeba D. discoideum (fluorescence) in infection; details: for activity at 0.411523 µM / activity at 1.23457 µM / activity at 3.7037 µM / activity at 11.1111 µM / activity at 33.3333 µM / activity at 100 µM: 72 h; for IC50: read-out: IC50 Dd in infection (μM)
From the text: as §1

Mycobacterium marinum [2] = assay: Anti-biotic assay: M. marinum growth in broth (luminescence); details: for activity at 0.411523 µM / activity at 1.23457 µM / activity at 3.7037 µM / activity at 11.1111 µM / activity at 33.3333 µM / activity at 100 µM: 72 h
Procedure: as §1
Plating bacteria and compounds or fractions was performed analogously to the infection assay described above. Bacteria growth was monitored with the Agilent BioTek H1 plate reader by recording luminescence at 32 °C.
The prepared plates were sealed and stored at 4 °C overnight. On the day of the experiment, nine 10 cm Petri dishes were infected (as described before) and grouped into three pools.

[3] = vehicle control set at 1, read-out: mean normalized residual growth, Mm in infection
[4] = vehicle control set at 1, read-out: median normalized residual growth, Mm in infection
[5] = read-out: mean normalized residual growth, Dd in infection
[6] = read-out: median normalized residual growth, Dd in infection
[7] = read-out: mean (normalised M. marinum growth, Mm in broth)
[8] = read-out: median (normalised M. marinum growth, Mm in broth)

## Oc1cc(O)cc([C@H]2c3c(O)cc(/C=C/c4ccc(O)cc4O)cc3O[C@@H]2c2ccc(O)cc2O)c1 (relative stereo) [Compound 10, (−)-Gnetumontanin A]
Mycobacterium marinum [1]; [3]
  activity at 0.411523 µM: 90.6%
  activity at 1.23457 µM: 132%
  activity at 3.7037 µM: 120%
  activity at 11.1111 µM: 145%
  activity at 33.3333 µM: 157%
  activity at 100 µM: 41.3%
Mycobacterium marinum [1]; [4]
  activity at 0.411523 µM: 90.5%
  activity at 1.23457 µM: 135%
  activity at 3.7037 µM: 120%
  activity at 11.1111 µM: 152%
  activity at 33.3333 µM: 160%
  activity at 100 µM: 59.1%
Mycobacterium marinum [1]
  IC50: > 100 µM
Dictyostelium discoideum; [5]
  activity at 0.411523 µM: 126%
  activity at 1.23457 µM: 88.6%
  activity at 3.7037 µM: 59.8%
  activity at 11.1111 µM: 54.4%
  activity at 33.3333 µM: 51.5%
  activity at 100 µM: 6.33%
Dictyostelium discoideum; [6]
  activity at 0.411523 µM: 102%
  activity at 1.23457 µM: 97%
  activity at 3.7037 µM: 90.5%
  activity at 11.1111 µM: 84.7%
  activity at 33.3333 µM: 80.4%
  activity at 100 µM: 76.2%
Dictyostelium discoideum
  IC50: > 100 µM
Mycobacterium marinum [2]; [7]
  activity at 0.411523 µM: 111%
  activity at 1.23457 µM: 103%
  activity at 3.7037 µM: 95.3%
  activity at 11.1111 µM: 96.3%
  activity at 33.3333 µM: 99.7%
  activity at 100 µM: 90%
Mycobacterium marinum [2]; [8]
  activity at 0.411523 µM: 116%
  activity at 1.23457 µM: 103%
  activity at 3.7037 µM: 95.2%
  activity at 11.1111 µM: 96.3%
  activity at 33.3333 µM: 97.6%
  activity at 100 µM: 91%

## Oc1ccc([C@@H]2Oc3cc(O)ccc3[C@H]3[C@H](c4cc(O)cc(O)c4)c4c(O)cc(O)cc4[C@H]32)cc1 [Compound 9, (−)-Gnemontanin G]
Mycobacterium marinum [1]; [3]
  activity at 0.411523 µM: 59%
  activity at 1.23457 µM: 82.5%
  activity at 3.7037 µM: 76.2%
  activity at 11.1111 µM: 58.4%
  activity at 33.3333 µM: 65.6%
  activity at 100 µM: 71.9%
Mycobacterium marinum [1]; [4]
  activity at 0.411523 µM: 69.2%
  activity at 1.23457 µM: 85.7%
  activity at 3.7037 µM: 74.2%
  activity at 11.1111 µM: 59.5%
  activity at 33.3333 µM: 72.4%
  activity at 100 µM: 75.7%
Mycobacterium marinum [1]
  IC50: > 100 µM
Dictyostelium discoideum; [5]
  activity at 0.411523 µM: 58.2%
  activity at 1.23457 µM: 70.8%
  activity at 3.7037 µM: 60.4%
  activity at 11.1111 µM: 64.9%
  activity at 33.3333 µM: 72.5%
  activity at 100 µM: 103%
Dictyostelium discoideum; [6]
  activity at 0.411523 µM: 95.8%
  activity at 1.23457 µM: 97.6%
  activity at 3.7037 µM: 99.6%
  activity at 11.1111 µM: 93.8%
  activity at 33.3333 µM: 91.4%
  activity at 100 µM: 91.6%
Dictyostelium discoideum
  IC50: > 100 µM
Mycobacterium marinum [2]; [7]
  activity at 0.411523 µM: 87.4%
  activity at 1.23457 µM: 93.9%
  activity at 3.7037 µM: 92.7%
  activity at 11.1111 µM: 81.3%
  activity at 33.3333 µM: 89.2%
  activity at 100 µM: 92.6%
Mycobacterium marinum [2]; [8]
  activity at 0.411523 µM: 86.6%
  activity at 1.23457 µM: 96.7%
  activity at 3.7037 µM: 92.3%
  activity at 11.1111 µM: 78.6%
  activity at 33.3333 µM: 87.9%
  activity at 100 µM: 91.7%

## Oc1ccc(/C=C/c2cc(O)c3c(c2)O[C@H](c2ccc(O)cc2)[C@H]3c2cc(O)c3c(c2)O[C@H](c2ccc(O)cc2)[C@H]3c2cc(O)c3c(c2)O[C@H](c2ccc(O)cc2)[C@H]3c2cc(O)cc(O)c2)cc1 [Compound 8, Gnemonol B]
Mycobacterium marinum [1]; [3]
  activity at 0.411523 µM: 132%
  activity at 1.23457 µM: 105%
  activity at 3.7037 µM: 127%
  activity at 11.1111 µM: 124%
  activity at 33.3333 µM: 112%
  activity at 100 µM: 61%
Mycobacterium marinum [1]; [4]
  activity at 0.411523 µM: 146%
  activity at 1.23457 µM: 94.6%
  activity at 3.7037 µM: 144%
  activity at 11.1111 µM: 128%
  activity at 33.3333 µM: 117%
  activity at 100 µM: 45.3%
Mycobacterium marinum [1]
  IC50: 66.7 µM
Dictyostelium discoideum; [5]
  activity at 0.411523 µM: 159%
  activity at 1.23457 µM: 139%
  activity at 3.7037 µM: 139%
  activity at 11.1111 µM: 120%
  activity at 33.3333 µM: 114%
  activity at 100 µM: 51.3%
Dictyostelium discoideum; [6]
  activity at 0.411523 µM: 92.7%
  activity at 1.23457 µM: 85.7%
  activity at 3.7037 µM: 92.1%
  activity at 11.1111 µM: 88.6%
  activity at 33.3333 µM: 81.5%
  activity at 100 µM: 33.4%
Dictyostelium discoideum
  IC50: 66.7 µM
Mycobacterium marinum [2]; [7]
  activity at 0.411523 µM: 118%
  activity at 1.23457 µM: 111%
  activity at 3.7037 µM: 113%
  activity at 11.1111 µM: 119%
  activity at 33.3333 µM: 117%
  activity at 100 µM: 114%
Mycobacterium marinum [2]; [8]
  activity at 0.411523 µM: 125%
  activity at 1.23457 µM: 116%
  activity at 3.7037 µM: 117%
  activity at 11.1111 µM: 115%
  activity at 33.3333 µM: 120%
  activity at 100 µM: 115%
Mycobacterium marinum [2]; read-out: IC50 Mm in broth (μM)
  IC50: > 100 µM

Source: paper PMC12015462, “Prioritization of novel anti-infective stilbene derivatives by combining metabolomic data organization and a stringent 3R-infection model in a knowledge graph” (RSC Advances, 2025)
